In patent US5840684A, “Glycopeptide antibiotic derivatives” (Eli Lilly and Company, priority 1995, dated 1998):
≈ marks a conversion by molar mass, not a printed value.

Experiments:
[1] = tested on: Enterococcus gallinarum 245; assay: broth micro-dilution MIC; format: cell-based; conditions: Enterococcus gallinarum 245
Experimental: (§1) The formula I compounds have in vitro and in vivo activity against Gram-positive pathogenic bacteria. The MIC's were determined using a standard broth micro-dilution assay.

Entercoccus faecium 2041 = assay: broth micro-dilution MIC; format: cell-based; conditions: Entercoccus faecium 2041
Experimental: as §1

[2] = tested on: Streptococcus pneumoniae P1; assay: broth micro-dilution MIC; format: cell-based
Experimental: as §1

[3] = tested on: vancomycin-susceptible enterococci; assay: broth micro-dilution, mean geometric MIC; format: cell-based, Enterococcus faecium and Enterococcus faecalis; conditions: enterococci, 24-hour incubation
[4] = tested on: Streptococcus pyogenes C203; assay: broth micro-dilution MIC; format: cell-based
Experimental: (§2) The MIC's were determined using a standard broth micro-dilution assay.

[5] = tested on: Staphylococcus aureus SA1199; assay: broth micro-dilution MIC; format: cell-based
Experimental: as §2

[6] = tested on: Staphylococcus aureus 489; assay: broth micro-dilution MIC; format: cell-based
Experimental: as §2

[7] = tested on: Staphylococcus aureus SA1199A; assay: broth micro-dilution MIC; format: cell-based
Experimental: as §2

Entercoccus faecium 276 = assay: broth micro-dilution MIC; format: cell-based
Experimental: as §2

[8] = tested on: Staphylococcus aureus X400; assay: broth micro-dilution MIC; format: cell-based
Experimental: as §2

[9] = tested on: Staphylococcus aureus X778; assay: broth micro-dilution MIC; format: cell-based
Experimental: as §2

[10] = tested on: Entercoccus faecium 180-1; assay: broth micro-dilution MIC; format: cell-based
Experimental: as §2

[11] = tested on: Staphylococcus aureus S13E; format: cell-based
Experimental: as §2

[12] = tested on: vancomycin-resistant enterococci; assay: broth micro-dilution, mean geometric MIC; format: cell-based, Enterococcus faecium and Enterococcus faecalis; conditions: enterococci, 24-hour incubation
[13] = tested on: Staphylococcus haemolyticus 415; assay: broth micro-dilution MIC; format: cell-based
Experimental: as §1

[14] = tested on: Staphylococcus haemolyticus 105; assay: broth micro-dilution MIC; format: cell-based
Experimental: as §1

[15] = tested on: Staphylococcus epidermidis 270; assay: broth micro-dilution MIC; format: cell-based
Experimental: as §1

Entercoccus faecium 180 = assay: broth micro-dilution MIC; format: cell-based; conditions: Entercoccus faecium 180
Experimental: as §1

[16] = tested on: Staphylococcus aureus 446; assay: broth micro-dilution MIC; format: cell-based
Experimental: as §2

[17] = tested on: Staphylococcus aureus SA1199B; format: cell-based
Experimental: as §2

[18] = tested on: Staphylococcus aureus 447; assay: broth micro-dilution MIC; format: cell-based
Experimental: as §2

SMILES	MIC [1]	MIC (Entercoccus faecium 2041)	MIC [2]	mean geometric MIC, Vancomycin Sensitive Strains [3]	MIC [4]	MIC [5]	MIC [6]	MIC [7]	MIC (Entercoccus faecium 276)	MIC [8]	MIC [9]	MIC [10]	MIC [11]	mean geometric MIC, Vancomycin Resistant Strains [12]	MIC [13]	MIC [14]	MIC (Entercoccus faecium 180)	MIC [16]	MIC [17]	MIC [18]	also measured
CNC(CC(C)C)C(=O)NC1C(=O)NC(CC(N)=O)C(=O)NC2C(=O)NC3C(=O)NC(C(=O)NC(C(=O)O)c4cc(O)cc(O)c4-c4cc3ccc4O)C(OC3CC(C)(N)C(O)C(C)O3)c3ccc(c(Cl)c3)Oc3cc2cc(c3OC2OC(CO)C(O)C(O)C2OC2CC(C)(NCc3cccc4c([N+](=O)[O-])cccc34)C(O)C(C)O2)Oc2ccc(cc2Cl)C1O (stereo not shown) [Compound 25]	≤ 0.06 µg/mL	0.25 µg/mL (≈ 0.141 µM)	≤ 0.06 µg/mL	0.22 µg/mL	≤ 0.06 µg/mL	≤ 0.06 µg/mL	≤ 0.06 µg/mL	≤ 0.06 µg/mL	0.25 µg/mL (≈ 0.141 µM)	≤ 0.06 µg/mL	≤ 0.06 µg/mL	≤ 0.06 µg/mL	≤ 0.06 µg/mL	4.0 µg/mL							
CNC(CC(C)C)C(=O)NC1C(=O)NC(CC(N)=O)C(=O)NC2C(=O)NC3C(=O)NC(C(=O)NC(C(=O)O)c4cc(O)cc(O)c4-c4cc3ccc4O)C(OC3CC(C)(N)C(O)C(C)O3)c3ccc(c(Cl)c3)Oc3cc2cc(c3OC2OC(CO)C(O)C(O)C2OC2CC(C)(NCCc3ccc(Oc4ccccc4)cc3)C(O)C(C)O2)Oc2ccc(cc2Cl)C1O (stereo not shown) [Compound 33]		≤ 0.06 µg/mL		0.18 µg/mL		1 µg/mL (≈ 0.559 µM)	≤ 0.06 µg/mL	≤ 0.06 µg/mL	≤ 0.06 µg/mL		0.5 µg/mL (≈ 0.28 µM)	≤ 0.06 µg/mL	≤ 0.06 µg/mL	2.8 µg/mL	8 µg/mL (≈ 4.47 µM)	2 µg/mL (≈ 1.12 µM)	2 µg/mL (≈ 1.12 µM)	4 µg/mL (≈ 2.24 µM)			MIC [15]: 2 µg/mL (≈ 1.12 µM)
CNC(CC(C)C)C(=O)NC1C(=O)NC(CC(N)=O)C(=O)NC2C(=O)NC3C(=O)NC(C(=O)NC(C(=O)O)c4cc(O)cc(O)c4-c4cc3ccc4O)C(OC3CC(C)(N)C(O)C(C)O3)c3ccc(c(Cl)c3)Oc3cc2cc(c3OC2OC(CO)C(O)C(O)C2OC2CC(C)(NCc3ccc(-c4ccc(OC)cc4)cc3)C(O)C(C)O2)Oc2ccc(cc2Cl)C1O (stereo not shown) [Compound 54]	0.5 µg/mL (≈ 0.28 µM)	≤ 0.06 µg/mL	≤ 0.06 µg/mL	0.56 µg/mL	≤ 0.06 µg/mL	0.5 µg/mL (≈ 0.28 µM)	≤ 0.06 µg/mL	≤ 0.06 µg/mL	1 µg/mL (≈ 0.559 µM)	≤ 0.06 µg/mL	≤ 0.06 µg/mL	≤ 0.06 µg/mL	0.5 µg/mL (≈ 0.28 µM)	1.7 µg/mL	1 µg/mL (≈ 0.559 µM)	2 µg/mL (≈ 1.12 µM)	1 µg/mL (≈ 0.559 µM)	1 µg/mL (≈ 0.559 µM)	1 µg/mL (≈ 0.559 µM)		
CNC(CC(C)C)C(=O)NC1C(=O)NC(CC(N)=O)C(=O)NC2C(=O)NC3C(=O)NC(C(=O)NC(C(=O)O)c4cc(O)cc(O)c4-c4cc3ccc4O)C(OC3CC(C)(N)C(O)C(C)O3)c3ccc(c(Cl)c3)Oc3cc2cc(c3OC2OC(CO)C(O)C(O)C2OC2CC(C)(NCCc3ccccc3OCc3ccccc3)C(O)C(C)O2)Oc2ccc(cc2Cl)C1O (stereo not shown) [Compound 59]	1 µg/mL (≈ 0.555 µM)	0.5 µg/mL (≈ 0.277 µM)	≤ 0.06 µg/mL	0.42 µg/mL	≤ 0.06 µg/mL	0.125 µg/mL (≈ 0.0693 µM)	0.125 µg/mL (≈ 0.0693 µM)	≤ 0.06 µg/mL	0.125 µg/mL (≈ 0.0693 µM)		≤ 0.06 µg/mL	≤ 0.06 µg/mL	0.125 µg/mL (≈ 0.0693 µM)	51 µg/mL	8 µg/mL (≈ 4.44 µM)	8 µg/mL (≈ 4.44 µM)	8 µg/mL (≈ 4.44 µM)	0.5 µg/mL (≈ 0.277 µM)	0.5 µg/mL (≈ 0.277 µM)	1 µg/mL (≈ 0.555 µM)	MIC [15]: 1 µg/mL (≈ 0.555 µM)
CNC(CC(C)C)C(=O)NC1C(=O)NC(CC(N)=O)C(=O)NC2C(=O)NC3C(=O)NC(C(=O)NC(C(=O)O)c4cc(O)cc(O)c4-c4cc3ccc4O)C(OC3CC(C)(N)C(O)C(C)O3)c3ccc(c(Cl)c3)Oc3cc2cc(c3OC2OC(CO)C(O)C(O)C2OC2CC(C)(NCC3CCC(c4ccccc4)C3)C(O)C(C)O2)Oc2ccc(cc2Cl)C1O (stereo not shown) [Compound 140]	8 µg/mL (≈ 4.57 µM)	≤ 0.06 µg/mL	≤ 0.06 µg/mL	0.19 µg/mL	≤ 0.06 µg/mL	≤ 0.06 µg/mL	≤ 0.06 µg/mL	≤ 0.06 µg/mL	0.5 µg/mL (≈ 0.286 µM)	≤ 0.06 µg/mL		≤ 0.06 µg/mL	≤ 0.06 µg/mL	6.7 µg/mL	8 µg/mL (≈ 4.57 µM)	2 µg/mL (≈ 1.14 µM)	1 µg/mL (≈ 0.571 µM)		≤ 0.06 µg/mL		
CNC(CC(C)C)C(=O)NC1C(=O)NC(CC(N)=O)C(=O)NC2C(=O)NC3C(=O)NC(C(=O)NC(C(=O)O)c4cc(O)cc(O)c4-c4cc3ccc4O)C(OC3CC(C)(N)C(O)C(C)O3)c3ccc(c(Cl)c3)Oc3cc2cc(c3OC2OC(CO)C(O)C(O)C2OC2CC(C)(NCc3ccccc3O)C(O)C(C)O2)Oc2ccc(cc2Cl)C1O (stereo not shown) [Compound 169]	4 µg/mL (≈ 2.35 µM)	≤ 0.06 µg/mL	≤ 0.06 µg/mL	0.50 µg/mL	≤ 0.06 µg/mL	≤ 0.06 µg/mL	≤ 0.06 µg/mL	≤ 0.06 µg/mL	≤ 0.06 µg/mL	≤ 0.06 µg/mL	≤ 0.06 µg/mL	≤ 0.06 µg/mL	≤ 0.06 µg/mL	19 µg/mL	4 µg/mL (≈ 2.35 µM)	2 µg/mL (≈ 1.18 µM)	1 µg/mL (≈ 0.589 µM)		0.125 µg/mL (≈ 0.0736 µM)	2 µg/mL (≈ 1.18 µM)	
CNC(CC(C)C)C(=O)NC1C(=O)NC(CC(N)=O)C(=O)NC2C(=O)NC3C(=O)NC(C(=O)NC(C(=O)O)c4cc(O)cc(O)c4-c4cc3ccc4O)C(OC3CC(C)(N)C(O)C(C)O3)c3ccc(c(Cl)c3)Oc3cc2cc(c3OC2OC(CO)C(O)C(O)C2OC2CC(C)(NCc3ccc(Oc4ccc(Cl)cc4)cc3)C(O)C(C)O2)Oc2ccc(cc2Cl)C1O (stereo not shown) [Compound 240]	2 µg/mL (≈ 1.11 µM)	≤ 0.06 µg/mL	≤ 0.06 µg/mL	0.055 µg/mL		0.5 µg/mL (≈ 0.276 µM)	1 µg/mL (≈ 0.553 µM)	≤ 0.06 µg/mL	0.5 µg/mL (≈ 0.276 µM)		0.5 µg/mL (≈ 0.276 µM)	≤ 0.06 µg/mL	0.5 µg/mL (≈ 0.276 µM)	1.19 µg/mL	2 µg/mL (≈ 1.11 µM)	1 µg/mL (≈ 0.553 µM)	≤ 0.06 µg/mL	1 µg/mL (≈ 0.553 µM)		0.5 µg/mL (≈ 0.276 µM)	
